# Laboratory results taken from PubChem BioAssay AID504342 (Broad Institute, 2011).
# Active and inactive are the calls of the source.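 How the source made its calls: active means fitted curve reaches 10% of the positive control caspase activation at or below the top valid tested dose; inactive means signal shifts the opposite way, plus the rest.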
# Experiments:
# [1] = system: MEF Flag-A1-IRES-BIM, caspase-Glo luminescence, 3 h; assay: inducers of caspase signal, alternate A1 construct – cell-based, MEF, plate reader, dry powder, set 2, orthogonal assay for A1 inhibitor project, dose response (AID 504342)
# [2] = as above; settings: MEF Flag-A1-IRES-BIM, caspase-Glo luminescence, 3 h; at 35 µM (top of the series)
Compound,AC10 [1],caspase activation [2]
Cc1ccc(Sc2c([N+](=O)[O-])cnc3ccccc23)cc1,> 16 µM (inactive),
Cn1c(=O)c([N+](=O)[O-])c(Oc2ccccc2)c2ccccc21,> 35 µM (inactive),
O=c1oc2ccccc2c(Cl)c1[N+](=O)[O-],,-5.93% (inactive)
Cc1ccc(Sc2cc(=O)n(C)c3ccccc23)cc1,,-6.4% (inactive)
Cn1c(=O)c([N+](=O)[O-])c(Nc2ccc(Cl)cc2)c2ccccc21,,-0.882% (inactive)
Cc1ccc(Nc2c([N+](=O)[O-])c(=O)oc3ccccc23)cc1,,0.875% (inactive)
CCSc1c([N+](=O)[O-])c(=O)oc2ccccc12,,-1.44% (inactive)
CCOC(=O)N1CCN(c2c([N+](=O)[O-])c(=O)n(C)c3ccccc23)CC1,,-0.543% (inactive)
O=c1oc2ccccc2c(N2CCCCC2)c1[N+](=O)[O-],,-2.6% (inactive)
Cn1c(=O)c([N+](=O)[O-])c(Cl)c2ccccc21,1.11 µM,
CCOCCCNc1c([N+](=O)[O-])c(=O)n(C)c2ccccc12,,1.28% (inactive)
O=[N+]([O-])c1cnc2ccccc2c1Sc1ccccc1,,-1.68% (inactive)
O=c1oc2ccccc2c(Sc2ccccc2)c1[N+](=O)[O-],,-6.2% (inactive)
O=C(Oc1cccc(/C=N/Nc2nc(Nc3ccccc3)nc(N3CCOCC3)n2)c1)c1ccco1,,2.95% (inactive)
Cc1ccc(Sc2c([N+](=O)[O-])c(=O)n(C)c3ccccc23)cc1,5.09 µM,
Cc1ccc(Nc2c([N+](=O)[O-])c(=O)n(C)c3ccccc23)cc1,,-0.435% (inactive)
Cc1ccc(Sc2c([N+](=O)[O-])c(=O)oc3ccccc23)cc1,,-2.87% (inactive)
Cn1c(=O)c([N+](=O)[O-])c(-n2cnc3ccccc32)c2ccccc21,15.1 µM,
CN1C(=O)C(C)(C)N(Cc2ccccc2)c2ccccc21,,1.13% (inactive)
C/C1=C/C(=O)O[C@@H]2C[C@@H](CC[C@H](C)/C=C\CC1)O[C@@](O)(C1CSC(=O)N1)C2 (stereo partly specified),,2.78% (inactive)
O=c1oc2ccccc2c(Nc2cc(Cl)cc(Cl)c2)c1[N+](=O)[O-],,-0.897% (inactive)
